From US8673578B2, “Methods of identifying antagonists of the hTAS2R46 bitter taste receptor” (Deutsches Institut für Ernahrungsforschung Potsdam-Rehbrücke, priority 2009, dated 2014)

Experiments:
[1] = target: T1, hTAS2R10 (Homo sapiens, UniProt Q9NYW0); assay: calcium imaging (FLIPR), activation of hTAS2R-transfected HEK293T-Gα16gust44 cells; format: cell-based; conditions: for calcium response of hTAS2R10-transfected cells: 100 μM test substance, bath application
T1 construct: expressed in transfected cells; host or cells: HEK293T cells stably expressing chimeric Gα16gust44, transient transfection
T1 sequence (Q9NYW0 1-307): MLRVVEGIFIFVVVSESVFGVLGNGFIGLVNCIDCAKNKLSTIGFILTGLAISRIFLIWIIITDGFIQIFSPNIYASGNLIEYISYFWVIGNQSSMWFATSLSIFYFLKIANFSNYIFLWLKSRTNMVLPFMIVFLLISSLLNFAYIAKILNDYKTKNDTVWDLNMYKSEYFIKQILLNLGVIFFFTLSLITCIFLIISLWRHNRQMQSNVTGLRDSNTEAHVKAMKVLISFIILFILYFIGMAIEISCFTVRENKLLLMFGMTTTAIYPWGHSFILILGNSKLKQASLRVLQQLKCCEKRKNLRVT
Description: (§1) Human TAS2R cDNAs were cloned into pcDNA5/FRT (Invitrogen, San Diego, Calif.). For adequate plasma membrane targeting, receptor cDNA was fused to the aminoterminal sequence of the rat somatostatin type 3 receptor at the aminoterminus of the recombinant protein (Bufe, B., T. Hofmann, et al. (2002) Nat Genet. 32(3): 397-401). For immunological detection, the Herpes simplex Glycoprotein D epitope was supplemented at the carboxyterminus of the recombinant protein (Bufe et al., supra). Receptor constructs were transiently transfected into HEK293T cells stably expressing the chimeric G protein subunit Gα16gust44 (Ueda, T., S. Ugawa, et al. (2003) J Neurosci 23(19): 7376-80) using Lipofectamine 2000 (Invitrogen, San Diego, Calif.) in 96-well plates.
(§2) Calcium Imaging experiments were performed 24 h after transfection using a Fluorometric Imaging Plate Reader (FLIPR, Molecular Devices, Munich, Germany) as previously described (Bufe et al., supra). Taste active compounds were ordered from Sigma (Sigma-Aldrich, Taufkirchen, Germany). Absinthin, 3β hydroxy dihydro costunolide and 3β hydroxy pelenolide were kindly provided by Giovanni Appendino (Novara, Italy). Test substances were directly dissolved in C1 buffer (130 mM NaCl, 10 mM Na-Hepes, 10 mM Glucose, 5 mM KCl, 2 mM CaCl2, pH 7.4) or in DMSO, respectively. DMSO stocks were further diluted in C1 buffer not exceeding a final DMSO concentration of 1% on the cells. For the investigation of antagonistic effects, test substances were premixed. Agonists were applied at concentrations corresponding to EC90, except where indicated otherwise (Table 2). Data were collected from 3 independent experiments performed in quadruplicates and processed with SigmaPlot (SPSS, Chicago, Ill.). Fluorescence signals after application of test substances were corrected for and normalized to background fluorescence (ΔF/F═(F−F0)/F0), and baseline noise was subtracted. Calculation of dose-response curves was done by nonlinear regression using the function f(y)=((a−d)/(1+(x/EC50)^nH)+d).
(§3) In a first series of experiments we tested the two sesquiterpene lactones 3β hydroxy dihydro costunolide (formula (I) in FIG. 1) and 3β hydroxy pelenolide (formula (II) in FIG. 1) for their ability to activate hTAS2 receptor-expressing HEK293T cells.
(§4) Signal amplitudes were comparatively small (FIG. 2C).

[2] = target: T2, hTAS2R14 (Homo sapiens, UniProt Q9NYV8); assay: as above; format: cell-based; conditions: 100 μM test substance, bath application
T2 construct: expressed in transfected cells; host or cells: HEK293T cells stably expressing chimeric Gα16gust44, transient transfection
T2 sequence (Q9NYV8 1-317): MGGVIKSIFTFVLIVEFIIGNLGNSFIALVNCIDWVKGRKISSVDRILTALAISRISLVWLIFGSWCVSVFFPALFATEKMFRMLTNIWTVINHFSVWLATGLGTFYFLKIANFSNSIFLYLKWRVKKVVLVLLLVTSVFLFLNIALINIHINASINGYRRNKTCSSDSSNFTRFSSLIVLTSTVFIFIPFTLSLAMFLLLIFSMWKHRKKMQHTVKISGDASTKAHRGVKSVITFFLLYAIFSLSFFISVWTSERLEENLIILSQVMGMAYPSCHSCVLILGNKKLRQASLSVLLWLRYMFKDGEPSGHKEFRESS
Description: as §1, §2, §3, §4

[3] = target: T3, hTAS2R44 (Homo sapiens, UniProt P59538, L162M); assay: calcium imaging (FLIPR), effect on agonist-dependent hTAS2R activation; format: cell-based; conditions: 100 μM test substance; agonist aristolochic acids 3 μM (EC90); agonist alone = 100%
T3 construct: expressed in transfected cells; host or cells: HEK293T cells stably expressing chimeric Gα16gust44, transient transfection
T3 sequence (P59538 1-309 L162M): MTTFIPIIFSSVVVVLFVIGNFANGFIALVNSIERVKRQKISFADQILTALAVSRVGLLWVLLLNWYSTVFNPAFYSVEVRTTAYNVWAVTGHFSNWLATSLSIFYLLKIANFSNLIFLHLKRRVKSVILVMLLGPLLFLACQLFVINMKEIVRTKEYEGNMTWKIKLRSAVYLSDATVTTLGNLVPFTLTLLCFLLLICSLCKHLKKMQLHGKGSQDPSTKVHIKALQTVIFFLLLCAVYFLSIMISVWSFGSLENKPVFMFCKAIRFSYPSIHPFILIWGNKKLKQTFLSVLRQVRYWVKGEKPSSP
Description: as §1, §2
(§5) To test 3β hydroxy dihydro costunolide and 3β hydroxy pelenolide for antagonistic or enhancing effects on hTAS2R activation, transfected cells were stimulated with cognate agonist bitter substances at EC90 concentrations (Table 2) without 3β hydroxy dihydro costunolide and 3β hydroxy pelenolide. The cellular responses after application of the agonist alone were set to 100%, responses obtained after coapplication of agonists and 100 μM 3β hydroxy dihydro costunolide or 100 μM 3β hydroxy pelenolide are shown relative to this value (FIG. 4).

[4] = test system: other hTAS2 receptors; assay: as above; format: cell-based, human; conditions: 100 μM test substance; cognate agonists of Table 2
Description: as §1
Calcium Imaging experiments were performed 24 h after transfection using a Fluorometric Imaging Plate Reader (FLIPR, Molecular Devices, Munich, Germany) as previously described (Bufe et al., supra). Taste active compounds were ordered from Sigma (Sigma-Aldrich, Taufkirchen, Germany). Absinthin, 3β hydroxy dihydro costunolide and 3β hydroxy pelenolide were kindly provided by Giovanni Appendino (Novara, Italy). […] Fluorescence signals after application of test substances were corrected for and normalized to background fluorescence (ΔF/F═(F−F0)/F0), and baseline noise was subtracted. […]

[5] = target: T4, hTAS2R5 (Homo sapiens, UniProt Q9NYW4); assay: as above; format: cell-based; conditions: 100 μM test substance; agonist denatonium saccharide 3000 μM; agonist alone = 100%
T4 construct: expressed in transfected cells; host or cells: HEK293T cells stably expressing chimeric Gα16gust44, transient transfection
T4 sequence (Q9NYW4 1-299): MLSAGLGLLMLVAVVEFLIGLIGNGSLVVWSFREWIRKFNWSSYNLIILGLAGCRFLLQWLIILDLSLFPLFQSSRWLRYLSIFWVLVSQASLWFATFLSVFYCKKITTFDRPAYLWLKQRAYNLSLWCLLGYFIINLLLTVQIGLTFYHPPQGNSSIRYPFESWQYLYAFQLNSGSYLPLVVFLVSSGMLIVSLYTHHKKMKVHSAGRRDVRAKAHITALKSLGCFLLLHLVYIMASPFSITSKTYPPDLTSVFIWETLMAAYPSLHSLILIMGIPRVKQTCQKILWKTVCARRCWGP
Description: as §1, §2, §5

| Compound | calcium response of hTAS2R10-transfected cells [1] | calcium response of hTAS2R14-transfected cells [2] | agonist-dependent response of hTAS2R44-expressing cells on coapplication [3] | agonist activation of cells expressing any of the other hTAS2Rs on coapplication [4] | EC50 ([1]; concentration-response, intracellular calcium) [µM] | agonist-dependent response of hTAS2R5-expressing cells on coapplication [5] |
| --- | --- | --- | --- | --- | --- | --- |
| C/C1=C\C[C@H](O)[C@@H](C)C[C@H]2OC(=O)[C@@H](C)[C@@H]2CC1 [3β hydroxy pelenolide] | displayed calcium signals | displayed calcium signals | moderately attenuating effect | not affected | – | – |
| C/C1=C\C[C@H](O)/C(C)=C/[C@H]2OC(=O)[C@@H](C)C2CC1 (stereo partly drawn) [3β hydroxy dihydro costunolide] | responded | responded | – | did not alter | 25.2 ± 3.6 | increased responses |
